According to patent US20250288704A1, “CXCR4-LIGANDS FOR DIAGNOSTIC AND THERAPEUTIC USE AND PRECURSORS THEREOF” (priority 2021, published 2025):
Starred links: 1 amine or outer side, 2 acyl side, 3 side chain; linkers in the order of their positions; H or OH if unused. Positions of bridges follow the written chain, without caps; N, C: chain ends. Non-standard residues stand in square brackets, D forms with d. Residues, ends and D or L forms follow the SMILES beside them. Groups on a side chain read outwards from the residue. Chains are numbered I, II in the order given. *: point of attachment. X7 = O=C(O)CN1CCN(CC(=O)O)CCN([C@H](CCC(=O)*)C(=O)O)CCN(CC(=O)O)CC1; Benzoyl(4-SiFtBu2) = CC(C)(C)[Si](F)(c1ccc(C(=O)*)cc1)C(C)(C)C; DOTA = O=C(O)CN1CCN(CC(=O)O)CCN(CC(=O)*)CCN(CC(=O)O)CC1; d(γGlu) = O=C(O)[C@@H](CCC(=O)[*:2])N[*:1]; dTyr(3-I) = N[C@H](Cc1ccc(O)c(I)c1)C(=O)O; 2Nal = N[C@@H](Cc1ccc2ccccc2c1)C(=O)O; dNMeOrn = CN[C@H](CCCN)C(=O)O; 4Abz = Nc1ccc(C(=O)O)cc1; dDap = NC[C@@H](N)C(=O)O; CO = O=C([*:1])[*:2]

What was measured:
[1] = test system: CXCR4-expressing Chem_1 cells; assay: Determination of internalization, dual tracer with 125I-Fc-131; assay type: cell-based; details: for Cell-bound [%] / Internalized [%]: of total cellular activity
Experimental: CXCR4-expressing Chem_1 cells were grown in DMEM-F12 medium supplemented with 10 vol % FBS, 1 vol % NEA, 1 vol % PenStrep and 1 vol % HEPES (1.00 M). Cells were maintained in a 5% CO2 atmosphere at 37° C.
For in vitro experiments, cells were harvested by removal of the medium and incubation of the cells with trypsine/EDTA (0.05%/0.02%; w/v) for 30 in at 37° C.
Each well (n=3 for every time point) was either treated with 25 μL DMEM-F12 (+5 wt % BSA) or 25 μL of an AMD3100 stock (1 mM in H2O) for blockage of the receptors.
The experiment was stopped by placing the well-plate on ice and removing the supernatant. The cells were washed with 250 μL cold HBSS and the both fractions for each well combined, comprising the amount of unbound radioligand.
The supernatant was removed, the cells washed with cold HBSS and the respective fractions combined to obtain the amount of surface-bound radioligand.
The cells were then incubated with 300 μL NaOH (1.00 M in H2O) for at least 30 at r.t. before the supernatant was removed. The well was washed with another 300 μL NaOH and the fractions combined that contain the amount of internalized radioligand.
The three different fractions were subjected to activity measurement in the γ-counter, measuring the activity of the radionuclide used for the labeling of the peptide under investigation first. […] Data was corrected for non-specific internalization and referred to the specific internalization of the standard ligand

[2] = Octanol/PBS partition coefficient (logD7.4); assay type: physicochemical; details: n-octanol/PBS pH 7.4, radiolabeled compound
Experimental: The tubes were vortexed at maximum speed for 3 min to ensure equilibrium before centrifugation at 15.000×g for 5 min on a Biofuge 15 from Heraeus Holding GmbH (Osterode, Germany). An aliquot of 100 μL of each fraction was measured in the γ-counter and the log D7.4 calculated as follows: […]

## C[C@@H](NC(=O)[C@@H](CCCNC(=N)N)NC(=O)[C@@H](CN)NC(=O)CN1CCN(CC(=O)O)CCN(CC(=O)O)CCN(CC(=O)O)CC1)C(=O)Nc1ccc(C(=O)NCCC[C@@H]2C(=O)N[C@@H](CCCNC(=N)N)C(=O)N[C@@H](Cc3ccc4ccccc4c3)C(=O)NCC(=O)N[C@H](Cc3ccc(O)cc3)C(=O)N2C)cc1 [CXCR4-DOTA-3 [Lu]] (cyclo([dY][dNMeOrn]([4Abz-dA-dR-dDap-DOTA])R[2Nal]G))
[1]; 15 min
  Internalized in relation to 125I-Fc-131 [%]: 180 ± 32.6%
  Cell-bound [%]: 6.46 ± 1.07%
  Internalized [%]: 15.2 ± 0.99%
[1]; 30 min
  Internalized in relation to 125I-Fc-131 [%]: 259 ± 23.0%
  Cell-bound [%]: 9.88 ± 0.54%
  Internalized [%]: 22.2 ± 0.78%
[1]; 60 min
  Internalized in relation to 125I-Fc-131 [%]: 289 ± 22.4%
  Cell-bound [%]: 13.4 ± 0.84%
  Internalized [%]: 33.4 ± 0.87%
[1]; 120 min
  Internalized in relation to 125I-Fc-131 [%]: 366 ± 69.5%
  Cell-bound [%]: 17.1 ± 2.69%
  Internalized [%]: 38.4 ± 1.78%
[1]; 2 h, 177Lu-labeled
  Internalization [% Fc-131] 2 h: 366 % Fc-131
[2]
  logD7.4: −3.35 ± 0.19 (6)

## C[C@@H](NC(=O)[C@@H](CCCNC(=N)N)NC(=O)[C@@H](CN)NC(=O)[C@@H](CNC(=O)CC[C@H](C(=O)O)N1CCN(CC(=O)O)CCN(CC(=O)O)CCN(CC(=O)O)CC1)NC(=O)[C@@H](CNC(=O)c1ccc([Si](F)(C(C)(C)C)C(C)(C)C)cc1)NC(=O)CC[C@@H](NC(=O)N[C@H](CCC(=O)O)C(=O)O)C(=O)O)C(=O)Nc1ccc(C(=O)NCCC[C@@H]2C(=O)N[C@@H](CCCNC(=N)N)C(=O)N[C@@H](Cc3ccc4ccccc4c3)C(=O)NCC(=O)N[C@H](Cc3ccc(O)cc3)C(=O)N2C)cc1 [CXCR4-SiFA-4 [Ga]] (I: {dE-CO-d(γGlu)}-[dDap](Benzoyl(4-SiFtBu2))[dDap](X7)[dDap][dR][dA][4Abz] / II: cyclo([dY][dNMeOrn]R[2Nal]G); amide I:C-II:2)
[1]; 30 min
  Internalized in relation to 125I-Fc-131 [%]: 56.6 ± 8.36%
  Cell-bound [%]: 0.10 ± 0.15%
  Internalized [%]: 1.36 ± 0.18%
[1]; 90 min
  Internalization [% Fc-131]: 58 % Fc-131
  Internalized in relation to 125I-Fc-131 [%]: 57.7 ± 5.43%
  Cell-bound [%]: 0.37 ± 0.20%
  Internalized [%]: 1.80 ± 0.15%
[2]
  logD7.4: −1.92 ± 0.06 (8)

## C[C@@H](NC(=O)[C@@H](CCCNC(=N)N)NC(=O)[C@@H](CN)NC(=O)[C@@H](CNC(=O)c1ccc([Si](F)(C(C)(C)C)C(C)(C)C)cc1)NC(=O)[C@@H](CCCCNC(=O)CC[C@H](C(=O)O)N1CCN(CC(=O)O)CCN(CC(=O)O)CCN(CC(=O)O)CC1)NC(=O)CC[C@H](C(=O)O)N1CCN(CC(=O)O)CCN(CC(=O)O)CCN(CC(=O)O)CC1)C(=O)Nc1ccc(C(=O)NCCC[C@@H]2C(=O)N[C@@H](CCCNC(=N)N)C(=O)N[C@@H](Cc3ccc4ccccc4c3)C(=O)NCC(=O)N[C@H](Cc3ccc(O)cc3)C(=O)N2C)cc1 [CXCR4-SiFA-3 [Ga]] (I: X7-[dK](X7)[dDap](Benzoyl(4-SiFtBu2))[dDap][dR][dA][4Abz] / II: cyclo([dY][dNMeOrn]R[2Nal]G); amide I:C-II:2)
[2]
  logD7.4: −1.65 ± 0.09 (8)

## C[C@@H](NC(=O)[C@@H](CCCNC(=N)N)NC(=O)[C@@H](CNC(=O)c1ccc([Si](F)(C(C)(C)C)C(C)(C)C)cc1)NC(=O)CC[C@H](C(=O)O)N1CCN(CC(=O)O)CCN(CC(=O)O)CCN(CC(=O)O)CC1)C(=O)Nc1ccc(C(=O)NCCC[C@@H]2C(=O)N[C@@H](CCCNC(=N)N)C(=O)N[C@@H](Cc3ccc4ccccc4c3)C(=O)NCC(=O)N[C@H](Cc3ccc(O)cc3)C(=O)N2C)cc1 [CXCR4-SiFA-1 [Ga]]
[2]
  logD7.4: 0.66 ± 0.01 (8)

## C[C@@H](NC(=O)[C@@H](CCCNC(=N)N)NC(=O)[C@@H](CN)NC(=O)CN1CCN(CC(=O)O)CCN(CC(=O)O)CCN(CC(=O)O)CC1)C(=O)Nc1ccc(C(=O)NCCC[C@@H]2C(=O)N[C@@H](CCCNC(=N)N)C(=O)N[C@@H](Cc3ccc4ccccc4c3)C(=O)NCC(=O)N[C@H](Cc3ccc(O)c(I)c3)C(=O)N2C)cc1 [CXCR4-DOTA-4 [Ga]] (cyclo([dTyr(3-I)][dNMeOrn]([4Abz-dA-dR-dDap-DOTA])R[2Nal]G))
[2]
  logD7.4: −2.65 ± 0.22 (6)
